The results in this text go back to US20250059159A1, “PLPRO INHIBITORS” (SHANGHAI SYNERGY PHARMACEUTICAL SCIENCES CO., LTD., priority 2021, published 2025).

SMILES strings stand for the structures.

The test addresses SARS-CoV-2 PLpro (Severe acute respiratory syndrome coronavirus 2 (2019-nCoV) (SARS-CoV-2), UniProt P0DTD1). Put plainly: PLpro enzymatic inhibition assay (IC50 value determination). The format is biochemical. The following applies: 60 min preincubation for covalent inhibitors, 10 min for non-covalent, read-out: Inhibition of SARS-CoV-2 PLpro IC50 range.
For the compound `CC(c1cccc2ccccc12)N1CCC(N(CC(=O)NCC(=O)NCC(=O)CF)S(C)(=O)=O)CC1` (stereo not drawn) [Compound 132, N-(3-fluoro-2-oxopropyl)-2-(2-(N-(1-(1-(naphthalen-1-yl)ethyl)piperidin-4-yl)methylsulfonamido)acetamido)acetamide], the IC50 is less than 0.1 µM. As for `CCC(=O)N(CC(=O)NCC(=O)NC/C=C/C(=O)OC)C1CCN(C(C)c2cccc3ccccc23)CC1` (stereo not drawn) [Compound 15, methyl (E)-4-(2-(2-(N-(1-(1-(naphthalen-1-yl)ethyl)piperidin-4-yl)propionamido)acetamido)acetamido)but-2-enoate], the figure is less than 0.1 µM; as for `COC(=O)/C=C/CNC(=O)CNC(=O)CN(C(=O)CC(F)(F)F)C1CCN(C(C)c2cccc3ccccc23)CC1` (stereo not drawn) [Compound 16, methyl (E)-4-(2-(2-(3,3,3-trifluoro-N-(1-(1-(naphthalen-1-yl)ethyl)piperidin-4-yl)propanamido)acetamido)acetamido)but-2-enoate], 0.1 to 1 µM; as for `C#CCNC(=O)CNC(=O)CN(C1CCN(C(c2cccc3ccccc23)C(F)F)CC1)S(C)(=O)=O` (stereo not drawn) [Compound 148, 2-(N-(1-(2,2-difluoro-1-(naphthalen-1-yl)ethyl)piperidin-4-yl)methylsulfonamido)-N-(2-oxo-2-(prop-2-yn-1-ylamino)ethyl)acetamide], 1 to 10 µM. Consider `C#CCNC(=O)CNC(=O)CN(C1CCN(C(C)c2cccc(-c3ccccc3)c2)CC1)S(C)(=O)=O` (stereo not drawn) [Compound 112, 2-(N-(1-(1-([1,1′-biphenyl]-3-yl)ethyl)piperidin-4-yl)methylsulfonamido)-N-(2-oxo-2-(prop-2-yn-1-ylamino)ethyl)acetamide], for which the half-maximal inhibitory concentration (IC50) lay within 0.1 to 1 µM.

For `C#CCNC(=O)CNC(=O)CN(C1CCN(C(C)c2nccc3ccccc23)CC1)S(C)(=O)=O` (stereo not drawn) [Compound 111, 2-(N-(1-(1-(isoquinolin-1-yl)ethyl)piperidin-4-yl)methylsulfonamido)-N-(2-oxo-2-(prop-2-yn-1-ylamino)ethyl)acetamide], the IC50 was 0.1 to 1 µM. In the case of `C#CCCNC(=O)CNC(=O)CN(C1CCN([C@H](C)c2cccc3ccccc23)CC1)S(C)(=O)=O` [Compound 127, (R)—N-(but-3-yn-1-yl)-2-(2-(N-(1-(1-(naphthalen-1-yl)ethyl)piperidin-4-yl)methylsulfonamido)acetamido)acetamide], the IC50 lay in the range of 0.1 to 1 µM. Turning to `C#CCNC(=O)CNC(=O)CN(C1CCN([C@H](C)c2cccc3ccccc23)CC1)S(=O)(=O)CCC(N)=O` [Compound 133, (R)-3-(N-(1-(1-(naphthalen-1-yl)ethyl)piperidin-4-yl)-N-(2-oxo-2-((2-oxo-2-(prop-2-yn-1-ylamino)ethyl)amino)ethyl)sulfamoyl)propanamide], the concentration for half-maximal inhibition (IC50) was less than 0.1 µM. As to `C#CCNC(=O)CNC(=O)CN(C1CCN(c2nc3cc(Cl)ccc3s2)CC1)S(C)(=O)=O` [Compound 126, 2-(N-(1-(5-chlorobenzo[d]thiazol-2-yl)piperidin-4-yl)methylsulfonamido)-N-(2-oxo-2-(prop-2-yn-1-ylamino)ethyl)acetamide], the IC50 is 1 to 10 µM. Take `COC(CNC(=O)CNC(=O)CN(C1CCN(C(C)c2cccc3ccccc23)CC1)S(C)(=O)=O)OC` (stereo not drawn) [Compound 154, N-(2,2-dimethoxyethyl)-2-(2-(N-(1-(1-(naphthalen-1-yl)ethyl)piperidin-4-yl)methylsulfonamido)acetamido)acetamide]: the half-inhibitory concentration (IC50) was in the range of 1 to 10 µM. With `C#CCNC(=O)CNC(=O)CN(C1CCN([C@H](C)c2cccc3ccccc23)CC1)S(N)(=O)=O` [Compound 145, (R)-2-((1-(1-(naphthalen-1-yl)ethyl)piperidin-4-yl)(sulfamoyl)amino)-N-(2-oxo-2-(prop-2-yn-1-ylamino)ethyl)acetamide 2,2,2-trifluoroacetate], the IC50 was less than 0.1 µM. Consider `CC(c1cccc2ccccc12)N1CCC(N(CC(=O)NCC(=O)NC/C=C/S(C)(=O)=O)C(=O)C2CCC2)CC1` (stereo not drawn) [Compound 9, (E)-N-(2-((2-((3-(methylsulfonyl)allyl)amino)-2-oxoethyl)amino)-2-oxoethyl)-N-(1-(1-(naphthalen-1-yl)ethyl)piperidin-4-yl)cyclobutanecarboxamide], for which the IC50 was in the range of 0.1 to 1 µM. On to `[2H]C([2H])([2H])C(c1cccc2ccccc12)N1CCC(N(CC(=O)NCC(=O)NCC#C)S(C)(=O)=O)CC1` (stereo not drawn) [Compound 151, 2-(N-(1-(1-(naphthalen-1-yl)ethyl-2,2,2-d3)piperidin-4-yl)methylsulfonamido)-N-(2-oxo-2-(prop-2-yn-1-ylamino)ethyl)acetamide], for which the IC50 is less than 0.1 µM. In the case of `CC(c1cccc2ccccc12)N1CCC(N(CC(=O)NCC(=O)NC/C=C/C(N)=O)C(=O)C2CCC2)CC1` (stereo not drawn) [Compound 8, (E)-N-(2-((2-((4-amino-4-oxobut-2-en-1-yl)amino)-2-oxoethyl)amino)-2-oxoethyl)-N-(1-(1-(naphthalen-1-yl)ethyl)piperidin-4-yl)cyclobutanecarboxamide], the IC50 was in the range of 0.1 to 1 µM. As for `C#CC(C)NC(=O)CNC(=O)CN(C1CCN([C@H](C)c2cccc3ccccc23)CC1)S(C)(=O)=O` (stereo partly drawn) [Compound 128, N-(but-3-yn-2-yl)-2-(2-(N-(1-((R)-1-(naphthalen-1-yl)ethyl)piperidin-4-yl)methylsulfonamido)acetamido)acetamide], the IC50 is 1 to 10 µM. As for `CC(c1cccc2ccccc12)N1CCC(N(CC(=O)NCC(=O)NC/C=C/C(N)=O)S(C)(=O)=O)CC1` (stereo not drawn) [Compound 159, (E)-4-(2-(2-(N-(1-(1-(naphthalen-1-yl)ethyl)piperidin-4-yl)methylsulfonamido)acetamido)acetamido)but-2-enamide], the figure is 0.1 to 1 µM. For `C#CC(C)(C)CNC(=O)CNC(=O)CN(C1CCN(C(C)c2cccc3ccccc23)CC1)S(C)(=O)=O` (stereo not drawn) [Compound 156, N-(2,2-dimethylbut-3-yn-1-yl)-2-(2-(N-(1-(1-(naphthalen-1-yl)ethyl)piperidin-4-yl)methylsulfonamido)acetamido)acetamide], the IC50 lay in the range of 1 to 10 µM. `C#CCNC(=O)CNC(=O)CN(C1CCN(C(C)c2cccc(OC)c2Cl)CC1)S(C)(=O)=O` (stereo not drawn) [Compound 123, 2-(N-(1-(1-(2-chloro-3-methoxyphenyl)ethyl)piperidin-4-yl)methylsulfonamido)-N-(2-oxo-2-(prop-2-yn-1-ylamino)ethyl)acetamide]: the IC50 was 0.1 to 1 µM.

Consider `C#CCNC(=O)CNC(=O)CN(C1CCN(C(CC)c2cccc3ccccc23)CC1)S(C)(=O)=O` (stereo not drawn) [Compound 103, 2-(N-(1-(1-(naphthalen-1-yl)propyl)piperidin-4-yl)methylsulfonamido)-N-(2-oxo-2-(prop-2-yn-1-ylamino)ethyl)acetamide], for which the IC50 was in the range of 0.1 to 1 µM.

Consider `C#CCNC(=O)CNC(=O)CN(C1CCN(C(C)c2c(Cl)cccc2Cl)CC1)S(C)(=O)=O` (stereo not drawn) [Compound 125, 2-(N-(1-(1-(2,6-dichlorophenyl)ethyl)piperidin-4-yl)methylsulfonamido)-N-(2-oxo-2-(prop-2-yn-1-ylamino)ethyl)acetamide], for which the IC50 is 0.1 to 1 µM.

Regarding `COC(=O)/C=C/CNC(=O)c1nnc(CNC(=O)CN(C2CCN(C(C)c3cccc4ccccc34)CC2)S(C)(=O)=O)o1` (stereo not drawn) [Compound 136, methyl (E)-4-(5-((2-(N-(1-(1-(naphthalen-1-yl)ethyl)piperidin-4-yl)methylsulfonamido)acetamido)methyl)-1,3,4-oxadiazole-2-carboxamido)but-2-enoate], the IC50 was 0.1 to 1 µM.

The term IC50 denotes the point on the concentration scale where inhibition reaches its midpoint.
